pIC50: −log10 of the molar value.
Target: T1, human histamine H3 receptor (Homo sapiens, UniProt Q9Y5N1)
T1 construct: host or cells: cells expressing the human H3 receptor
Assay: H3 GTPγS assay (SPA method), histamine H3 in vitro assay
Format: biochemical
Conditions: GTPγ[35S] binding to membranes of cells expressing human H3; antagonist mode with R-γ-Me-Histamine at EC80 (30 nM); in one embodiment HCl salts tested; read-out: Potency (functional potency as indicated by IC50)
Protocol: H3 GTPγS assay (SPA method) was performed at EuroScreen (Belgium, ES-392-C) using conventional methods. Briefly, cells expressing the human histamine H3 receptor were homogenized in 15 mM Tris-HCl pH 7.5, 2 mM MgCl2, 0.3 mM EDTA, and 1 mM EGTA. Membranes were washed twice in the above tris buffer, collected by centrifugation (40,000×g, 25 min), and re-suspended in 75 mM Tris-HCl pH 7.5, 12.5 mM MgCl2, 0.3 mM EDTA, 1 mM EGTA, and 250 mM sucrose. Membranes were frozen in liquid nitrogen until use. On the day of the assay, membranes were thawed and diluted in assay buffer (20 mM HEPES pH 7.4, 100 mM NaCl, 10 μg/ml saponin, 1 mM MgCl2) to give 500 μg/ml and mixed (v/v) with GDP in assay buffer for a final GDP concentration of 10 μM and incubated on ice for at least 15 min. PVT-WGA beads (Amersham, RPNQ001) were diluted in assay buffer at 50 mg/mL and mixed with GTPγ[^35S] (Amersham, SJ1308) diluted in assay buffer to give ˜25,000 dpm/10 μL and mixed vol/vol just before the start of the reaction. The reaction was started by adding 50 μL of test compound, 20 μL of the membranes:GDP mix, 10 μL of buffer, and 20 μL of the GTPγ[^35S]:beads mix in a 96 well plate Optiplate™ (PerkinElmer, 6005299) covered with topseal (TopCount™, PerkinElmer), mixed with an orbital shaker for 2 min, incubated for 1 hour at room temperature, centrifuged for 10 min at 2000 rpm, incubated for 1 h at room temperature, and counted for 1 min in a TopCount™ reader (PerkinElmer). Dose response curves and IC50 values (concentration to inhibit the reaction by 50%) were calculated by nonlinear regression using XLfit software (IDBS).
For antagonists testing, 10 μL of a reference agonist (R-γ-Me-Histamine) instead of 10 μL buffer was added at a concentration corresponding to the EC80 (30 nM). Control ligands were R-γ-Me-Histamine (Tocris, 0569), Imetit (Sigma, I-135), Thioperamide (Tocris, 0644), and Clobenpropit (Tocris, 0754) diluted in assay buffer.
The compounds provided herein were tested in the histamine H3 in vitro assay. In one embodiment, the respective HCl salts of the compounds provided herein were prepared using standard chemical procedures and tested in the histamine H3 in vitro assay.

T1 sequence (Q9Y5N1 whole entry): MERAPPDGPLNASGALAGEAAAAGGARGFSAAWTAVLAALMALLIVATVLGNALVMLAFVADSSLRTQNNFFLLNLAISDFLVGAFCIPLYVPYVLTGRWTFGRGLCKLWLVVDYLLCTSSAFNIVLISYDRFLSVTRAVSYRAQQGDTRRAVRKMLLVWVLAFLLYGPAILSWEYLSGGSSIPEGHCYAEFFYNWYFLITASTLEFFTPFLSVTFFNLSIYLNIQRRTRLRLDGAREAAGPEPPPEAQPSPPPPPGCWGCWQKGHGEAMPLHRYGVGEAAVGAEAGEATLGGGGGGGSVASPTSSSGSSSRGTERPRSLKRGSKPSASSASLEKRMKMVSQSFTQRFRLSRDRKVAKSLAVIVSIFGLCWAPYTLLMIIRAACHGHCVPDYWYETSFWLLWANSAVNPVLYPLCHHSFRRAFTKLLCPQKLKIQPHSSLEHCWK

Row | Structure (SMILES) | pIC50
1 | N#Cc1ccc(-c2ccc3c(c2)nc2n3CCN(C3CCC3)CC2)cc1 [Compound 2] | ≥ 8.00
2 | c1cc2c(cc1-c1ccc3nncn3c1)nc1n2CCN(C2CCC2)CC1 [Compound 204, 8-([1,2,4]triazolo[4,3-a]pyridin-6-yl)-3-cyclobutyl-2,3,4,5-tetrahydro-1H-benzo[4,5]imidazo[1,2-d][1,4]diazepine] | ≥ 8.00
3 | c1ncc(-c2ccc3c(c2)nc2n3CCN(C3CCC3)CC2)cn1 [Compound 126, 3-cyclobutyl-8-(pyrimidin-5-yl)-2,3,4,5-tetrahydro-1H-benzo[4,5]imidazo[1,2-d][1,4]diazepine] | ≥ 8.00
4 | COc1ccnc(OCc2ccc3c(c2)nc2n3CCN(C3CCC3)CC2)n1 [Compound 107] | ≥ 7.00
5 | c1coc(-c2ccc3nc4n(c3c2)CCN(C2CCC2)CC4)c1 [Compound 90] | ≥ 6.00
6 | c1c2c(cc3c1nc1n3CCN(C3CCC3)CC1)CCNC2 [Compound 183, 9-cyclobutyl-2,3,4,7,8,9,10,11-octahydro-1H-[1,4]diazepino[7′,1′:2,3]imidazo[4,5-g]isoquinoline] | ≥ 7.00
7 | CN(C)Cc1ccc2c(c1)nc1n2CCN(C2CCC2)CC1 [Compound 105] | ≥ 7.00
8 | FC1(F)CCN(c2ccc3c(c2)nc2n3CCN(C3CCC3)CC2)CC1 [Compound 178, 3-cyclobutyl-8-(4,4-difluoropiperidin-1-yl)-2,3,4,5-tetrahydro-1H-benzo[4,5]imidazo[1,2-d][1,4]diazepine] | ≥ 7.00
9 | N#Cc1ccc2c(c1)nc1n2CCN(C2CCC2)CC1 [Compound 54] | ≥ 6.00
10 | c1cnn(-c2ccc3c(c2)nc2n3CCN(C3CCC3)CC2)n1 [Compound 151, 3-cyclobutyl-8-(2H-1,2,3-triazol-2-yl)-2,3,4,5-tetrahydro-1H-benzo[4,5]imidazo[1,2-d][1,4]diazepine] | ≥ 7.00
11 | Clc1ccc2c(c1)nc1n2CCN(Cc2cnc[nH]2)CC1 [Compound 15] | ≤ 6.00
12 | c1c2c(cc3c1nc1n3CCN(C3CCC3)CC1)CNCC2 [Compound 189, 9-cyclobutyl-2,3,4,7,8,9,10,11-octahydro-1H-[1,4]diazepino[1′,7′:1,2]imidazo[4,5-g]isoquinoline] | ≥ 7.00
13 | O=c1cccnn1-c1ccc2c(c1)nc1n2CCN(C2CCC2)CC1 [Compound 71, 2-(3-cyclobutyl-2,3,4,5-tetrahydro-1H-[1,4]diazepino[1,7-a]benzimidazol-9-yl)pyridazin-3(2H)-one] | ≥ 6.00
14 | c1cnc(N2CCCC(c3ccc4c(c3)nc3n4CCN(C4CCC4)CC3)C2)cn1 (stereo not drawn) [Compound 129, 3-cyclobutyl-8-(1-(pyrazin-2-yl)piperidin-3-yl)-2,3,4,5-tetrahydro-1H-benzo[4,5]imidazo[1,2-d][1,4]diazepine] | ≥ 8.00
15 | O=C(c1ccc2nc3n(c2c1)CCN(C1CCC1)CC3)N1CCCC1 [Compound 86] | ≥ 6.00
16 | COc1ccnc(Nc2ccc3c(c2)nc2n3CCN(C3CCC3)CC2)n1 [Compound 64] | ≥ 7.00
17 | N#Cc1ccc(-c2ccc3c(c2)nc2n3CCN(Cc3cnc[nH]3)CC2)cc1 [Compound 18] | ≤ 6.00
18 | FC1CCN(c2ccc3c(c2)nc2n3CCN(C3CCC3)CC2)C1 (stereo not drawn) [Compound 181, 3-cyclobutyl-8-(3-fluoropyrrolidin-1-yl)-2,3,4,5-tetrahydro-1H-benzo[4,5]imidazo[1,2-d][1,4]diazepine] | ≥ 7.00
19 | O=C(C1CC1)N1CCN(c2ccc3c(c2)nc2n3CCN(C3CCC3)CC2)CC1 [Compound 170, (4-(3-cyclobutyl-2,3,4,5-tetrahydro-1H-benzo[4,5]imidazo[1,2-d][1,4]diazepin-8-yl)piperazin-1-yl)(cyclopropyl)methanone] | ≥ 8.00
20 | O=c1[nH]c2cc(-c3ccc4c(c3)nc3n4CCN(C4CCC4)CC3)ccc2o1 [Compound 215, 5-(3-cyclobutyl-2,3,4,5-tetrahydro-1H-benzo[4,5]imidazo[1,2-d][1,4]diazepin-8-yl)benzo[d]oxazol-2(3H)-one] | ≥ 7.00

Row | Structure (SMILES) | pIC50
21 | c1cc2c(cc1-c1cnc(N3CCCC3)cn1)nc1n2CCN(C2CCC2)CC1 [Compound 91] | ≥ 7.00
22 | c1ccc(-c2ccc3c(c2)nc2n3CCN(C3CCC3)CC2)nc1 [Compound 114, 3-cyclobutyl-9-(pyridin-2-yl)-2,3,4,5-tetrahydro-1H-[1,4]diazepino[1,7-a]benzimidazole] | ≥ 7.00
23 | Fc1ccc2c(c1)CN(c1ccc3c(c1)nc1n3CCN(C3CCC3)CC1)CC2 [Compound 177, 3-cyclobutyl-8-(7-fluoro-3,4-dihydroisoquinolin-2(1H)-yl)-2,3,4,5-tetrahydro-1H-benzo[4,5]imidazo[1,2-d][1,4]diazepine] | ≥ 8.00
24 | Cn1cnc2cc(-c3ccc4c(c3)nc3n4CCN(C4CCC4)CC3)cnc21 [Compound 202, 3-cyclobutyl-8-(3-methyl-3H-imidazo[4,5-b]pyridin-6-yl)-2,3,4,5-tetrahydro-1H-benzo[4,5]imidazo[1,2-d][1,4]diazepine] | ≥ 8.00
25 | COc1cccc(-c2ccc3c(c2)nc2n3CCN(C3CCC3)CC2)n1 [Compound 137, 3-cyclobutyl-8-(6-methoxypyridin-2-yl)-2,3,4,5-tetrahydro-1H-benzo[4,5]imidazo[1,2-d][1,4]diazepine] | ≥ 7.00
26 | CN1CCN(c2cnc(-c3ccc4c(c3)nc3n4CCN(C4CCC4)CC3)cn2)CC1 [Compound 92, 3-cyclobutyl-9-(5-(4-methylpiperazin-1-yl)pyrazin-2-yl)-2,3,4,5-tetrahydro-1H-[1,4]diazepino[1,7-a]benzimidazole] | ≥ 8.00
27 | COc1ccnc(Nc2ccc3nc4n(c3c2)CCN(C2CCC2)CC4)n1 [Compound 80] | ≥ 6.00
28 | c1cc2c(cc1N1CCN(C3CCCC3)CC1)nc1n2CCN(C2CCC2)CC1 [Compound 100, 3-cyclobutyl-9-(4-cyclopentylpiperazin-1-yl)-2,3,4,5-tetrahydro-1H-[1,4]diazepino[1,7-a]benzimidazole] | ≥ 8.00
29 | c1cnc(OCc2ccc3c(c2)nc2n3CCN(C3CCC3)CC2)cn1 [Compound 109] | ≥ 8.00
30 | CC(C1CCC1)N1CCc2nc3cc(Cl)ccc3n2CC1 (stereo not drawn) [Compound 11] | ≤ 6.00
31 | c1cnc(N2Cc3cc4nc5n(c4cc3C2)CCN(C2CCC2)CC5)nc1 [Compound 148, 8-cyclobutyl-2-(pyrimidin-2-yl)-1,2,3,6,7,8,9,10-octahydro-[1,4]diazepino[1′,7′:1,2]imidazo[4,5-f]isoindole] | ≥ 7.00
32 | c1cc2c(cc1CN1CCOCC1)nc1n2CCN(C2CCC2)CC1 [Compound 74, 3-cyclobutyl-9-(morpholin-1-ylmethyl)-2,3,4,5-tetrahydro-1H-[1,4]diazepino[1,7-a]benzimidazole] | ≥ 8.00
33 | c1cnc(N2CCc3cc4nc5n(c4cc3C2)CCN(C2CCC2)CC5)cn1 [Compound 190, 9-cyclobutyl-2-(pyrazin-2-yl)-2,3,4,7,8,9,10,11-octahydro-1H-[1,4]diazepino[1′,7′:1,2]imidazo[4,5-g]isoquinoline] | ≥ 8.00
34 | Cc1nc2ccc(F)cc2n1-c1ccc2c(c1)nc1n2CCN(C2CCC2)CC1 [Compound 208, 3-cyclobutyl-8-(6-fluoro-2-methyl-1H-benzo[d]imidazol-1-yl)-2,3,4,5-tetrahydro-1H-benzo[4,5]imidazo[1,2-d][1,4]diazepine] | ≥ 8.00
35 | Brc1ccc2c(c1)nc1n2CCN(C2CCC2)CC1 [Compound 21] | ≥ 6.00
36 | O=C(c1cnccn1)N1CCN(c2ccc3c(c2)nc2n3CCN(C3CCC3)CC2)CC1 [Compound 169, (4-(3-cyclobutyl-2,3,4,5-tetrahydro-1H-benzo[4,5]imidazo[1,2-d][1,4]diazepin-8-yl)piperazin-1-yl)(pyrazin-2-yl)methanone] | ≥ 7.00
37 | c1ccc2cc(-c3ccc4c(c3)nc3n4CCN(C4CCC4)CC3)ccc2c1 [Compound 214, 3-cyclobutyl-8-(naphthalen-2-yl)-2,3,4,5-tetrahydro-1H-benzo[4,5]imidazo[1,2-d][1,4]diazepine] | ≥ 7.00
38 | O=C1c2cc3nc4n(c3cc2C(=O)N1Cc1ccccc1)CCN(C1CCC1)CC4 [Compound 143, 2-benzyl-8-cyclobutyl-7,8,9,10-tetrahydro-[1,4]diazepino[1′,7′:1,2]imidazo[4,5-f]isoindole-1,3(2H,6H)-dione] | ≤ 6.00
39 | CN1CCN(c2ccc3c(c2)nc2n3CCN(C3CCC3)CC2)CC1 [Compound 73, 3-cyclobutyl-9-(4-methylpiperazin-1-yl)-2,3,4,5-tetrahydro-1H-[1,4]diazepino[1,7-a]benzimidazole] | ≥ 8.00

From patent US8404670B2 (Sunovion Pharmaceuticals Inc., priority 2009, dated 2013)
